According to ChEMBL document CHEMBL1201862, “PubChem BioAssay data set” (2004):
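48-hour exposure; five concentrations; linearly interpolated endpoints. Here, GI50 denotes the concentration required for 50% inhibition of growth.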 Calls of active or inactive are those of the source. No stated cut-off is given here; in the data, active = GI50 up to about 1.1 µM and inactive = higher.

Assays:
Test in all cases: NCI-60 cell line screen, 48 h
[1] = test system: SK-MEL-28
[2] = test system: A498
[3] = test system: MCF7
[4] = test system: NCI-H23
[5] = test system: HCT-15
[6] = test system: K562
[7] = test system: SNB-75
[8] = test system: HL-60
[9] = test system: PC-3
[10] = test system: SF-539
[11] = test system: Malme-3M
[12] = test system: M14
[13] = test system: OVCAR-3
[14] = test system: ACHN
[15] = test system: T47D
[16] = test system: A549
[17] = test system: MDA-MB-435
[18] = test system: SW-620
[19] = test system: LOX IMVI
[20] = test system: KM12
[21] = test system: TK-10
[22] = test system: SNB-19
[23] = test system: NCI-H226
[24] = test system: SF-268
[25] = test system: SF-295
[26] = test system: IGROV-1
[27] = test system: HCT-116
[28] = test system: CCRF-CEM
[29] = test system: BT-549
[30] = test system: SK-OV-3
[31] = test system: NCI/ADR-RES
[32] = test system: HOP-62
[33] = test system: OVCAR-4
[34] = test system: EKVX
[35] = test system: HCC 2998
[36] = test system: DU-145
[37] = test system: NCI-H460
[38] = test system: COLO 205
[39] = test system: HT-29
[40] = test system: U-251
[41] = test system: SK-MEL-2
[42] = test system: SN12C
[43] = test system: Hs-578T
[44] = test system: MOLT-4
[45] = test system: OVCAR-5
[46] = test system: RXF 393
[47] = test system: NCI-H522
[48] = test system: OVCAR-8
[49] = test system: UACC-62
[50] = test system: 786-0
[51] = test system: RPMI-8226
[52] = test system: CAKI-1
[53] = test system: UACC-257
[54] = test system: MDA-MB-231
[55] = test system: MDA-N
[56] = test system: SK-MEL-5
[57] = test system: HOP-92
[58] = test system: UO-31

## CCOC(=O)/C(C(=O)Nc1ccc(Cl)cc1)=C(/N)N1CCCC1
[1]
  GI50: > 100 µM (inactive)
[2]
  GI50: 64.4 µM (inactive)
[3]
  GI50: > 100 µM (inactive)
[4]
  GI50: > 100 µM (inactive)
[5]
  GI50: > 100 µM
[6]
  GI50: 66.7 µM (inactive)
[7]
  GI50: > 100 µM (inactive)
[8]
  GI50: > 100 µM (inactive)
[9]
  GI50: > 100 µM (inactive)
[10]
  GI50: > 100 µM (inactive)
[11]
  GI50: > 100 µM (inactive)
[12]
  GI50: > 100 µM (inactive)
[13]
  GI50: > 100 µM (inactive)
[14]
  GI50: 45.6 µM (inactive)
[15]
  GI50: > 100 µM (inactive)
[16]
  GI50: > 100 µM (inactive)
[17]
  GI50: > 100 µM (inactive)
[18]
  GI50: > 100 µM (inactive)
[19]
  GI50: > 100 µM (inactive)
[20]
  GI50: > 100 µM (inactive)
[21]
  GI50: > 100 µM (inactive)
[22]
  GI50: > 100 µM (inactive)
[23]
  GI50: > 100 µM (inactive)
[24]
  GI50: > 100 µM (inactive)
[25]
  GI50: > 100 µM (inactive)
[26]
  GI50: 54.2 µM (inactive)
[27]
  GI50: 94 µM (inactive)
[28]
  GI50: > 100 µM (inactive)
[29]
  GI50: > 100 µM (inactive)
[30]
  GI50: > 100 µM (inactive)
[31]
  GI50: > 100 µM (inactive)
[32]
  GI50: > 100 µM (inactive)
[33]
  GI50: 69.3 µM (inactive)
[34]
  GI50: > 100 µM (inactive)
[35]
  GI50: > 100 µM (inactive)
[36]
  GI50: > 100 µM (inactive)
[37]
  GI50: > 100 µM (inactive)
[38]
  GI50: > 100 µM (inactive)
[39]
  GI50: > 100 µM (inactive)
[40]
  GI50: > 100 µM (inactive)
[41]
  GI50: 49.3 µM (inactive)
[42]
  GI50: > 100 µM (inactive)
[43]
  GI50: > 100 µM (inactive)
[44]
  GI50: 71.6 µM (inactive)
[45]
  GI50: > 100 µM (inactive)
[46]
  GI50: > 100 µM (inactive)
[47]
  GI50: > 100 µM (inactive)
[48]
  GI50: > 100 µM (inactive)
[49]
  GI50: 42 µM (inactive)
[50]
  GI50: > 100 µM (inactive)
[51]
  GI50: 97.9 µM (inactive)
[52]
  GI50: > 100 µM (inactive)
[53]
  GI50: > 100 µM (inactive)
[54]
  GI50: > 100 µM (inactive)
[55]
  GI50: > 100 µM (inactive)

## CC(Nc1ccc(Cl)c(Cl)c1)c1ccncc1 (centres undefined)
[1]
  GI50: 35.7 µM (inactive)
[2]
  GI50: 20.1 µM (inactive)
[3]
  GI50: 22.4 µM (inactive)
[4]
  GI50: 31.4 µM (inactive)
[56]
  GI50: 16.7 µM (inactive)
[5]
  GI50: 40.3 µM
[6]
  GI50: 45.3 µM (inactive)
[7]
  GI50: 23 µM (inactive)
[9]
  GI50: 19.4 µM (inactive)
[10]
  GI50: 30.8 µM (inactive)
[11]
  GI50: 34.3 µM (inactive)
[12]
  GI50: 29 µM (inactive)
[13]
  GI50: 26.8 µM (inactive)
[14]
  GI50: 19.1 µM (inactive)
[15]
  GI50: 51.6 µM (inactive)
[16]
  GI50: 10.5 µM (inactive)
[17]
  GI50: 29.4 µM (inactive)
[18]
  GI50: 20.7 µM (inactive)
[19]
  GI50: 18.4 µM (inactive)
[20]
  GI50: 14.9 µM (inactive)
[21]
  GI50: 31.9 µM (inactive)
[22]
  GI50: 22.5 µM (inactive)
[23]
  GI50: 17.9 µM (inactive)
[57]
  GI50: 18.9 µM (inactive)
[24]
  GI50: 44 µM (inactive)
[25]
  GI50: 23.9 µM (inactive)
[26]
  GI50: 25.4 µM (inactive)
[27]
  GI50: 16.6 µM (inactive)
[28]
  GI50: 20.7 µM (inactive)
[29]
  GI50: 26.1 µM (inactive)
[58]
  GI50: 11.6 µM (inactive)
[30]
  GI50: 11.4 µM (inactive)
[31]
  GI50: 28.1 µM (inactive)
[32]
  GI50: 20.9 µM (inactive)
[33]
  GI50: 58.2 µM (inactive)
[34]
  GI50: 39.9 µM (inactive)
[36]
  GI50: 30.2 µM (inactive)
[37]
  GI50: 16.6 µM (inactive)
[38]
  GI50: 16.5 µM (inactive)
[39]
  GI50: 23.7 µM (inactive)
[40]
  GI50: 19.9 µM (inactive)
[41]
  GI50: 22.9 µM (inactive)
[42]
  GI50: 50.7 µM (inactive)
[43]
  GI50: > 10 µM (inactive)
[44]
  GI50: 19.5 µM (inactive)
[45]
  GI50: > 10 µM (inactive)
[46]
  GI50: 17.6 µM (inactive)
[47]
  GI50: 12.5 µM (inactive)
[48]
  GI50: 21.8 µM (inactive)
[50]
  GI50: 29 µM (inactive)
[51]
  GI50: 5.75 µM (inactive)
[52]
  GI50: 31 µM (inactive)
[53]
  GI50: 26.2 µM (inactive)
[54]
  GI50: 16 µM (inactive)
[55]
  GI50: 24.6 µM (inactive)

## CC(C)(C)c1cc(C2COC(c3cc(C(C)(C)C)c(O)c(C(C)(C)C)c3)CO2)cc(C(C)(C)C)c1O (centres undefined)
[1]
  GI50: > 100 µM (inactive)
[2]
  GI50: > 100 µM (inactive)
[3]
  GI50: > 100 µM (inactive)
[4]
  GI50: > 100 µM (inactive)
[56]
  GI50: > 100 µM (inactive)
[5]
  GI50: > 100 µM
[6]
  GI50: > 100 µM (inactive)
[7]
  GI50: > 100 µM (inactive)
[9]
  GI50: > 100 µM (inactive)
[10]
  GI50: > 100 µM (inactive)
[11]
  GI50: > 100 µM (inactive)
[12]
  GI50: > 100 µM (inactive)
[13]
  GI50: > 100 µM (inactive)
[14]
  GI50: > 100 µM (inactive)
[15]
  GI50: > 100 µM (inactive)
[16]
  GI50: > 100 µM (inactive)
[17]
  GI50: > 100 µM (inactive)
[18]
  GI50: > 100 µM (inactive)
[19]
  GI50: > 100 µM (inactive)
[20]
  GI50: > 100 µM (inactive)
[21]
  GI50: > 100 µM (inactive)
[22]
  GI50: > 100 µM (inactive)
[23]
  GI50: > 100 µM (inactive)
[57]
  GI50: > 100 µM (inactive)
[24]
  GI50: > 100 µM (inactive)
[25]
  GI50: > 100 µM (inactive)
[26]
  GI50: > 100 µM (inactive)
[27]
  GI50: 51.6 µM (inactive)
[28]
  GI50: > 100 µM (inactive)
[29]
  GI50: > 100 µM (inactive)
[58]
  GI50: > 100 µM (inactive)
[30]
  GI50: > 100 µM (inactive)
[31]
  GI50: > 100 µM (inactive)
[32]
  GI50: > 100 µM (inactive)
[33]
  GI50: > 100 µM (inactive)
[34]
  GI50: > 100 µM (inactive)
[36]
  GI50: > 100 µM (inactive)
[38]
  GI50: 33.1 µM (inactive)
[39]
  GI50: > 100 µM (inactive)
[40]
  GI50: 90.4 µM (inactive)
[41]
  GI50: > 100 µM (inactive)
[42]
  GI50: > 100 µM (inactive)
[43]
  GI50: > 100 µM (inactive)
[45]
  GI50: > 100 µM (inactive)
[46]
  GI50: > 100 µM (inactive)
[47]
  GI50: > 100 µM (inactive)
[48]
  GI50: > 100 µM (inactive)
[49]
  GI50: > 100 µM (inactive)
[50]
  GI50: > 100 µM (inactive)
[51]
  GI50: > 100 µM (inactive)
[52]
  GI50: > 100 µM (inactive)
[53]
  GI50: > 100 µM (inactive)
[54]
  GI50: > 100 µM (inactive)
[55]
  GI50: > 100 µM (inactive)
